Assay results as given in PMC6501426 (Clinical Epigenetics, 2019).

Assays:
MDA-MB-231 = assay: Cell viability, trypan blue exclusion; type: cell-based, human; details: Homo sapiens, MDA-MB-231; 48 h of treatment; read-out: IC50 ± SD, cell viability, MDA-MB-231
Description: (§1) U-937 (acute myeloid leukemia), RAJI (Burkitt’s lymphoma), PC-3 (prostate cancer), and MDA-MB-231 (breast cancer) cell lines were obtained from the Deutsche Sammlung für Mikroorganismen and Zellkulturen (DSZM, Braunschweig, Germany) and were cultured in RPMI 1640 (Lonza, Verviers, Belgium) complemented with 10% FBS (Lonza, Verviers, Belgium) and 1% antibiotic-antimycotic (Lonza). RPMI1788 (normal B lymphocytes) and KG-1 (acute myeloid leukemia) cell lines were obtained from the American Type Culture Collection (ATCC) and were maintained in RPMI 1640 complemented with 20% FBS and IMDM complemented with 10% FBS, respectively. Cell lines were treated with compounds at the indicated concentrations in the exponential growth phase.
(§2) Proliferation and viability of U-937, KG-1, RAJI, PC-3, MDA-MB-231, RPMI1788, PBMCs, and PHA_PBMCs were assessed by trypan blue exclusion assays at the indicated time points. Nuclear morphology changes associated with apoptosis and necrosis were evaluated by fluorescence microscopy after Hoechst and propidium iodide (PI) staining as previously described.
(§3) IC50 values of compounds against cellular viability were determined by using nonlinear regression fitting curves with GraphPad Prism 8 or CalcuSyn software The t test used for statistical analyses was performed with GraphPad Prism 8. All the tests were one-tailed, and a p value < 0.05 was considered statistically significant.

PC-3 = assay: Cell viability, trypan blue exclusion; type: cell-based, human; details: Homo sapiens, PC-3; 48 h of treatment; read-out: IC50 ± SD, cell viability, PC-3
Description: as §1, §2, §3

RAJI = assay: Cell viability, trypan blue exclusion; type: cell-based, human; details: Homo sapiens, Raji; 48 h of treatment; read-out: IC50 ± SD, cell viability, RAJI
Description: as §1, §2, §3

KG-1 = assay: Cell viability, trypan blue exclusion; type: cell-based, human; details: Homo sapiens, KG-1; 48 h of treatment; read-out: IC50 ± SD, cell viability, KG-1
Description: as §1, §2, §3

[1] = tested on: RPMI1788 (normal B lymphocytes); assay: Cell viability, trypan blue exclusion; type: cell-based; details: Homo sapiens, RPMI-1788; 48 h of treatment; normal cells; read-out: IC50 ± SD, cell viability, RPMI1788
Description: as §1, §2
IC50 values of compounds against cellular viability were determined by using nonlinear regression fitting curves with GraphPad Prism 8 or CalcuSyn software The t test used for statistical analyses was performed with GraphPad Prism 8. […]

[2] = tested on: PBMCs (non-proliferating, healthy donors); assay: Cell viability, trypan blue exclusion; type: cell-based; details: Homo sapiens, PBMC, 48 h of treatment, read-out: IC50 ± SD, cell viability, PBMCs
Description: Peripheral blood mononuclear cells (PBMCs) from healthy donors were isolated as previously described. Freshly isolated PBMCs were either cultured and treated at 1.10^6 cells/mL (non-proliferating PBMCs) or stimulated with phytohaemoagglutinin (PHA) and interleukin (IL)-2 (called PHA_PBMCs) to induce blastogenesis in T lymphocytes before treatments as previously described. Briefly, freshly isolated PBMCs were seeded at a concentration of 2.10^6 cells/mL in RMPI 1640 supplemented with 1% antibiotic-antimycotic (Lonza, Verviers, Belgium) and 10% human AB serum (Corning, Fisher scientific, Merelbeke, Belgium). After overnight incubation, floating lymphoid cells were collected and seeded at 1.10^6 cells/mL in RMPI 1640 supplemented with 1% antibiotic-antimycotic, 5% FBS, 10% human AB serum, 1 μg/mL PHA (Gentaur, Kampenhout, Belgium), 50 U/mL IL-2 (Roche, Prophac, Luxembourg City, Luxembourg), 1% non-essential amino acids (Invitrogen, Luxembourg), 1% HEPES (Invitrogen, Luxembourg), 1% sodium pyruvate (Invitrogen, Luxembourg), and 0.1% β-mercaptoethanol (Invitrogen, Luxembourg). After 72 h, the cells were seeded at 1.10^6 cells/mL in the same mitogenic growth medium described just above and treated with test compounds.
as §2, §3

[3] = tested on: DNMT3A protein level in HCT116 cells; assay: Western blot of DNMT3A protein in HCT116; type: cell-based, human; details: 24 h; MC3353 effect detectable at 0.1 μM
Text: Cells were lysed in Laemmli buffer; subsequently, the proteins were resolved by sodium dodecyl sulfate-polyacrylamide gel electrophoresis and transferred to a 0.45-μm nitrocellulose membrane (Bio-Rad Laboratories, Hercules, CA). The following primary antibodies were used for immunoblotting: α-E-cadherin (BD Transduction Laboratories, Franklin Lakes, NJ), α-MMP2 (Abcam), α-DNMT3a (Santa Cruz Biotechnologies, Dallas, TX), and α-GAPDH (Millipore Corp., Bedford, MA), used as a loading control. The immune complexes were detected with horseradish peroxidase-conjugated species-specific secondary antiserum (Bio-Rad Laboratories, Milan, Italy) then by enhanced chemiluminescence reaction (Bio-Rad Laboratories, Milan, Italy). Densitometric analysis of protein expression was performed by using the Fiji ImageJ image processing package.
GAPDH was used as a loading control. Blots are representative of two independent experiments

`Cc1cc(Nc2ccc(NC(=O)c3ccc(Nc4ccnc5ccccc45)cc3)cc2)nc(N)n1` [SGI-1027, reference compound] was tested, and the IC50 (MDA-MB-231) was 8.5 ± 7.2 µM, the IC50 (PC-3) was 5 ± 0.6 µM and the IC50 (RAJI) was 7.8 ± 0.7 µM. It also gave an IC50 (KG-1) of 3.6 ± 0.6 µM, an IC50 [1] of 6.7 ± 1.3 µM and an IC50 [2] of 18.1 ± 6.8 µM. For the same compound, the “DNMT3A protein expression level (western blot), HCT116” value [3] was “moderate effect on DNMT3A expression level”.
